Measured values reported in patent US9950992B2, “Water soluble haloanilide calcium-release calcium channel inhibitory compounds and methods to control bone erosion and inflammation associated with arthritides” (West Virginia University, priority 2016, dated 2018).
Entries after “also recorded” stand apart in the source; their conditions may differ. Read-outs that look alike come from different tables or passages of the source. Values belong to the compound of their own block, whether it stands above or below them.

Tests used:
OCL formation = assay: OCL (osteoclast) formation assay; type: cell-based
[1] = Water solubility / hydrophobicity; type: physicochemical
[2] = system: collagen-induced arthritis (CIA); assay: Collagen-induced arthritis (CIA) in mice, blinded arthritic index and paw swelling; type: in vivo, mouse; conditions: DCPA 21 mg/kg/day
Method: Effects on swelling, inflammatory cell invasion in joints, serum cytokines and bone erosion were measured.
Male DBA/1 mice were used, from Harlan Laboratories, Frederick Md. […] Briefly, type II collagen (CII) was injected in complete Freund's adjuvant at 100 μg per animal (˜4 μg/kg) at day 1 and, after 21 days, a booster dose of 100 μg C II in Freund's incomplete adjuvant. […] Mice were monitored for arthritis and scored in a blinded manner. Swelling of paws was be graded on scale from 0 to 4 indicating number of swollen digits. All paws were evaluated, so that the maximal arthritic index per mouse was 16. Additionally, hind paw swelling was measured using digital calipers on day 0, and each day on days 23-40. Analysis of the bones and joints for arthritis was done on H&E stained sections of hind paws, by blinded observation. This scored synovial expansion and inflammation, joint damage including pannus, and bone degradation, each on a scale of 0-3, with maximum score of 9.

[3] = system: collagen-induced arthritis (CIA); assay: Histology of H&E stained hind paw sections in CIA mice, blinded score; type: in vivo, mouse
Method: Male DBA/1 mice were used, from Harlan Laboratories, Frederick Md. […] Briefly, type II collagen (CII) was injected in complete Freund's adjuvant at 100 μg per animal (˜4 μg/kg) at day 1 and, after 21 days, a booster dose of 100 μg C II in Freund's incomplete adjuvant. […] Mice were monitored for arthritis and scored in a blinded manner. Swelling of paws was be graded on scale from 0 to 4 indicating number of swollen digits. All paws were evaluated, so that the maximal arthritic index per mouse was 16. Additionally, hind paw swelling was measured using digital calipers on day 0, and each day on days 23-40. Analysis of the bones and joints for arthritis was done on H&E stained sections of hind paws, by blinded observation. This scored synovial expansion and inflammation, joint damage including pannus, and bone degradation, each on a scale of 0-3, with maximum score of 9. […] For histological analysis, two paws from each animal were analyzed separately and blindly, and are calculated as two specimens per animal; however, if averages are used with n=animal number, there was no effect on differences (not shown).
Hind paws of animals were decalcified, paraffin embedded, cut, and stained with hematoxylin and eosin (FIGS. 2A-C). […] Therefore, blinded qualitative grading was used. […]

[4] = system: collagen-induced arthritis (CIA); assay: Micro-computed tomography and morphometry of paws in CIA mice; type: in vivo, mouse; conditions: high dose CIA/DCPA (21 mg)
Method: Analysis by micro-computed tomography was as described (14). In brief, paws fixed in Millonig's solution were scanned on a Viva CT40 instrument (Scanco, Bassersdorf, Switzerland) with three-dimensional reconstruction by the manufacturer's instrument-specific software. The scan section increment was 20 μm; 3-D reconstruction used a density cutoff of 211 mg/cm^3. Analysis of trabecular thickness and trabecular spacing used the plate model.

[5] = system: serum inflammatory cytokines; assay: Serum analysis for cytokines in CIA mice (V-PLEX panels); type: in vivo, mouse
Method: Heart blood at sacrifice, 40 days, was used for analysis. Plasma was separated by centrifiigation and frozen in aliquots at −20° C. until used. Production of anti-CII antibodies was evaluated by ELISA (Rheumera, Astarte Biologies, Redmond, Wash.). Production of cytokines was evaluated using V-PLEX panels in 96-well plates (Meso Scale Discovery, Rockville, Md.).

[6] = system: osteoclasts and CD3 T cells in tissue sections; assay: Antibody labeling of sections (anti-ATPa3/TCIRG osteoclasts, anti-CD3 T cells) in CIA mice; type: in vivo, mouse; conditions: high dose CIA/DCPA relative to CIA/placebo
Method: Antibodies used were, for TCIRGI, mouse monoclonal (clone 6H3) antibody (Sigma-Aldrich) at 1:100 dilution. For CD3, anti-CD3 mouse monoclonal antibody (PC3/188A) against synthetic peptide spanning amino acids 156-168 of the cytoplasmic domain of human CD3-ε chain was used, at 1:100 dilution. Briefly, sections were blocked in PBS with 2% hydrogen peroxide for 5 minutes and then in PBS with 2% BSA for two hours, then reacted overnight with antibodies at indicated concentrations in PBS with 0.01% tween 20, and after washing with biotinylated anti-mouse at 1:1000 dilution. Then streptavidin-horseradish peroxidase, and diaminobenzidine substrate were added. Hematoxylin and eosin counterstain was use to show tissue features. Imaging used a Nikon TE2000 inverted microscope, with 14-bit 2048×2048 pixel monochrome CCD and RGB filters to reconstruct color (Spot, Sterling Heights, Mich.).

[7] = General health of treated CIA mice (weight, activity); type: in vivo, mouse; conditions: about three weeks of DCPA
Method: Male DBA/1 mice were used, from Harlan Laboratories, Frederick Md. […] Briefly, type II collagen (CII) was injected in complete Freund's adjuvant at 100 μg per animal (˜4 μg/kg) at day 1 and, after 21 days, a booster dose of 100 μg C II in Freund's incomplete adjuvant. Inflammation was apparent 4-8 days after the second dose, in 80% of treated joints. […] Mice were monitored for arthritis and scored in a blinded manner. Swelling of paws was be graded on scale from 0 to 4 indicating number of swollen digits. All paws were evaluated, so that the maximal arthritic index per mouse was 16. Additionally, hind paw swelling was measured using digital calipers on day 0, and each day on days 23-40. Analysis of the bones and joints for arthritis was done on H&E stained sections of hind paws, by blinded observation. This scored synovial expansion and inflammation, joint damage including pannus, and bone degradation, each on a scale of 0-3, with maximum score of 9. […] For histological analysis, two paws from each animal were analyzed separately and blindly, and are calculated as two specimens per animal; however, if averages are used with n=animal number, there was no effect on differences (not shown).

[8] = target: CRAC channel (STIM1/Orail) (Homo sapiens, UniProt Q96D31); conditions: by destabilizing STIM1/Orail interaction; Zhou et al., 2011; cited from earlier work
[9] = system: human or murine osteoclasts; conditions: earlier study (ref 5), cited from earlier work
[10] = humans, cited from earlier work
CIA = conditions: 10 mg/kg, cited from earlier work
TRPM4 = TRPM4 (Homo sapiens, UniProt Q8TD43); conditions: cited from earlier work
TRPM4, sequence (Q8TD43 whole entry, species assumed): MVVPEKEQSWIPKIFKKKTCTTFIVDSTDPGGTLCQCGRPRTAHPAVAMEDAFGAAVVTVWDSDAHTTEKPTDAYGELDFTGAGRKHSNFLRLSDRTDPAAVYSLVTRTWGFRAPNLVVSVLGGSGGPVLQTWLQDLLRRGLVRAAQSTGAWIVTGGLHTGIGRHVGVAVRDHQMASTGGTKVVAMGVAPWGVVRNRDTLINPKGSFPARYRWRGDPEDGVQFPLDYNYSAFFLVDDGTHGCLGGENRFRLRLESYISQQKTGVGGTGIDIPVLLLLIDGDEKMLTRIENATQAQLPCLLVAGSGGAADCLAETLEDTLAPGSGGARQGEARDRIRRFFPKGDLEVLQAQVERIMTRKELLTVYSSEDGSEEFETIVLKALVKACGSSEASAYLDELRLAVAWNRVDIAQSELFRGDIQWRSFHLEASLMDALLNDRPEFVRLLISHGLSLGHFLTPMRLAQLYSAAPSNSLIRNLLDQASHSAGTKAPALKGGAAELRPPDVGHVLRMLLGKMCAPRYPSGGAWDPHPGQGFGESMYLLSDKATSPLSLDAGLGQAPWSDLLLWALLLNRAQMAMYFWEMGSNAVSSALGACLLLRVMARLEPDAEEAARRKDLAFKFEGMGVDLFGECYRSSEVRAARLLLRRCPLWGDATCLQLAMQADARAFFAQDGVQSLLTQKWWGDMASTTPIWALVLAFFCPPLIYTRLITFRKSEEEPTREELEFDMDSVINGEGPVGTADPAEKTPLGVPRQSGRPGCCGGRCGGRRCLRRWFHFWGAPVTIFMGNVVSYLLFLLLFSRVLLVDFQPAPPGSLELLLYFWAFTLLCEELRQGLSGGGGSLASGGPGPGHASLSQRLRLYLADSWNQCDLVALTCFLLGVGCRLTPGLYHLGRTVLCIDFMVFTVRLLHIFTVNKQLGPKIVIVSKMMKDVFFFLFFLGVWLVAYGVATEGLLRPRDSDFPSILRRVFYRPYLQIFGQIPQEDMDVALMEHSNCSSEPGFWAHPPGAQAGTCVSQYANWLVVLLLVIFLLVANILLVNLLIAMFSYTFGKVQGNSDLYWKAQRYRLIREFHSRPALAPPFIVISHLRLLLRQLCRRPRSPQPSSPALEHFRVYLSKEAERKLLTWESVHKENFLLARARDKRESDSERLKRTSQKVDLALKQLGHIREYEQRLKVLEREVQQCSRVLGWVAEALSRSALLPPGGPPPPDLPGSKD

CRAC channel (STIM1/Orail), sequence (Q96D31 whole entry): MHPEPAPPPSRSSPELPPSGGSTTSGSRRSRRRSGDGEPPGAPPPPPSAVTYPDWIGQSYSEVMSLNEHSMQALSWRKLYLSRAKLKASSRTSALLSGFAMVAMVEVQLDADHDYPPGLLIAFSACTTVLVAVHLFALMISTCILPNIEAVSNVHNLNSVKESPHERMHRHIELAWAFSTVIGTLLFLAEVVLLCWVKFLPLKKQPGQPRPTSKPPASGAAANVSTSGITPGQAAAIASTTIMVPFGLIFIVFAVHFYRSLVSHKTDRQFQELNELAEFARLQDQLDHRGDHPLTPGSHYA

Compound: CN(C(=O)CC(=O)O)c1ccc(Cl)c(Cl)c1 [N-MeDCOPA]
inhibition of OCL formation (OCL formation; 100 μM): shows inhibition of OCL formation

hydrophobicity [1]: very hydrophobic
Compound: N-methyl-DCPA [N-MeDCPA]
toxicity compared with DCPA (OCL formation; OCL assay findings): less toxic than DCPA
effect in OCL assay compared with DCPA (OCL formation; same doses as DCPA, took longer): looked as good as DCPA

water solubility compared with DCPA [1]: more water soluble compound than DCPA
Compound: O=C(O)CC(=O)Nc1ccc(Cl)c(Cl)c1 [DCOPA, 3-(3,4-dichloroanilino)-3-oxopropanoic acid]

Compound: CCC(=O)Nc1ccc(Cl)c(Cl)c1 [DCPA, N-(3,4-dichlorophenyl)propanamide]
overall swelling of joints [2]: reduced by a similar amount
time of maximal effect after collagen booster [2]: 12 to 17 days
reduction of bone and cartilage damage in sections of animal feet ([3]; DCPA 21 mg/kg/day): −50%
histological damage score ([3]; ankle bone of one animal, high dose CIA/DCPA (21 mg DCPA), 40 days, scale 0-9): 4
bone volume/total volume by micro-CT ([4]; p=0.03 vs CIA/placebo): statistically greater than CIA/placebo animals
bone density by micro-CT ([4]; sacrifice day 40): indistinguishable from untreated controls
effect on serum cytokines (TNF-α, IL-1, IL-6, CXCL1, IFN-γ) ([5]; DCPA 21 mg/kg/day, day 40 serum, vs CIA/placebo): no effect; also recorded: did not affect
effect on cytokine production of IL-12p70 or IL-10 ([5]; DCPA, serum of CIA mice): did not significantly affect
osteoclast surface area (ATPa3 labeling) [6]: large and statistically significant reduction
adverse effects on animal weight or activity [7]: no adverse effects
CRAC channel activation [8]: inhibits CRAC channel activation
osteoclast differentiation / formation in vitro [9]: inhibits osteoclast formation in vitro
osteoclast differentiation / formation in vitro ([9]; listed as 3,4-dichloropropionaniline): reduced differentiation of bone degrading osteoclasts
toxicity of intermittent exposure in mg/kg quantities [10]: minimal apparent toxicity
dose that can cause fatal methemoglobinemia ([10]; massive doses): 4 to 5 g/kg

Compound: Cc1nnsc1C(=O)Nc1ccc(-n2nc(C(F)(F)F)cc2C(F)(F)F)cc1 [BTP-2, 4-methy-4-[3,5-bis(trifluorometliyl)-1H-pyrazol-1-yl]-1,2,3-thiadiazole-5-carboxanilide]
inflammatory cytokines IL1, IL6 and TNF-α (CIA; 10 days after induction): near-baseline levels
effect on CIA (CIA): suppressed CIA
concentration suppressing cytokines including 1L2 and calcium influx by TRPM4 (TRPM4): low nanomolar concentrations
